Test results from the supplement of paper PMC8671470.
± gives the standard deviation of the averaged measurements.

Key:
Conditions in all cases: 72 h
[1] = test system: NOMO-1
Procedure, shortened: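 Each of fifteen myeloid leukaemia cell lines was seeded in RPMI 1640 at a density titrated to its linear growth range. The cells were incubated for 72 h at 37 °C and 5% CO2 with compounds at five tenfold doses from 1 to 10,000 nM, in duplicate. After ATP luminescence was normalised to vehicle and to a positive control at 10 µM, four-parameter log-logistic curves were fitted. These curves gave the IC50.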

[2] = test system: HL-60; assay: cell viability (% survival relative to DMSO control); higher = less cytotoxic
Procedure, shortened: (§1)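 Four-parameter log-logistic fits in drc and PharmacoGx supplied area under the curve where it is given. Underlying viability came from CellTiter-Glo, normalised to DMSO and proteasome-inhibitor wells, with the proteasome inhibitor at 10 μM. HL-60 cells in RPMI 1640 plus 10% FBS had been rescreened against the full library at five tenfold concentrations of 1–10,000 nM, in duplicate on 384-well plates, with DMSO or 100 nM of one of three metabolic inhibitors, for 72 h at 37 °C, 5% CO2.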

[3] = test system: BV-173; assay: cell viability (% survival relative to DMSO control, bortezomib = 0%); higher = less cytotoxic
Procedure, shortened: (§2)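 Seeding density for each of the 10 AML and 5 CML cell lines was titrated to the linear growth range. Cells went into 384-well plates pre-printed in duplicate with compounds at 1, 10, 100, 1000 or 10000 nM and were held for 72 h at 37 °C with 5% CO2. CellTiter-Glo luminescence then provided the readout. Percent survival is expressed relative to vehicle at 100% and a 10 µM positive control at 0%, averaged over duplicates.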

[4] = test system: HEL; assay: as above
Procedure, shortened: as §2

[5] = test system: HL-60; assay: as above
Procedure, shortened: as §2

[6] = test system: K-562; assay: as above
Procedure, shortened: as §2

[7] = test system: KCL-22; assay: as above
Procedure, shortened: as §2

[8] = test system: KG-1; assay: as above
Procedure, shortened: as §2

[9] = test system: KU-812; assay: as above
Procedure, shortened: as §2

[10] = test system: LAMA-84; assay: as above
Procedure, shortened: as §2

[11] = test system: ML-2; assay: as above
Procedure, shortened: as §2

[12] = test system: MOLM-13; assay: as above
Procedure, shortened: as §2

[13] = test system: MV4-11; assay: as above
Procedure, shortened: as §2

[14] = test system: Mono-Mac-6; assay: as above
Procedure, shortened: as §2

[15] = test system: NOMO-1; assay: as above
Procedure, shortened: as §2

[16] = test system: SHI-1; assay: as above
Procedure, shortened: as §2

[17] = test system: THP-1; assay: as above
Procedure, shortened: as §2

[18] = test system: HL-60; assay: area under dose-response curve (viability, 1 nM-10 uM) (fraction (0-1)); higher = more sensitive
Procedure, shortened: as §1

N#Cc1ccc(C2CCCc3cncn32)cc1 (stereo not given) [Fadrozole]
Conditions	IC50 (cell viability) [µM]
[1]	> 10

cell viability [%], [2]
Conditions	0.001 µM	0.01 µM	0.1 µM	1 µM	10 µM
co-treatment: AZD3965 100 nM	99.99 ± 0.4	98.614 ± 0.083	101 ± 12	96.8 ± 2.8	98.7 ± 3
co-treatment: DMSO vehicle	103 ± 3.8	101 ± 1.2	104 ± 5.4	100 ± 0.66	102.2 ± 0.98
co-treatment: GSK2194069 100 nM	105 ± 7.6	97.3 ± 4.8	101 ± 17	112 ± 3	100 ± 1.6
co-treatment: pictilisib 100 nM	103 ± 6	101 ± 3.5	113 ± 24	113 ± 6.1	107 ± 15

Conditions	area under dose-response curve, co-treatment: AZD3965 100 nM	area under dose-response curve, co-treatment: DMSO vehicle	area under dose-response curve, co-treatment: GSK2194069 100 nM	area under dose-response curve, co-treatment: pictilisib 100 nM	cell viability, 1 nM [%]	cell viability, 10 nM [%]	cell viability, 100 nM [%]	cell viability, 1000 nM [%]	cell viability, 10000 nM [%]
[3]	–	–	–	–	103	95.3	95	116	106
[4]	–	–	–	–	106	95.1	93.5	96.9	111
[5]	–	–	–	–	108	91.7	88	85.9	99.2
[6]	–	–	–	–	95.8	97.9	95.8	101	109
[7]	–	–	–	–	115	92.2	88.6	82.7	103
[8]	–	–	–	–	108	97.9	89.5	110	108
[9]	–	–	–	–	95.8	87.3	92.2	112	112
[10]	–	–	–	–	102	93.7	103	95.5	107
[11]	–	–	–	–	90.5	90.7	86.2	107	109
[12]	–	–	–	–	108	86.8	92.7	94.4	93.2
[13]	–	–	–	–	109	96.4	95.9	93.2	98.1
[14]	–	–	–	–	102	93.4	97.2	101	112
[15]	–	–	–	–	100	90.2	93.4	100	105
[16]	–	–	–	–	113	95.3	101	95.8	102
[17]	–	–	–	–	99.6	96.3	96.2	107	102
[18]	< 0.0301	< 0.0301	< 0.0301	< 0.0301	–	–	–	–	–
